Structures can show the parent of a compound that is named as a salt. Where two headings read alike, the source gives them in different places.
Legend:
[1] = In-vitro free radical scavenging activity using DPPH free radical; conditions: 30° C., 30 minutes, 515 nm
Description: Free Radical Scavenging Activity:
To determine the in-vitro free radical scavenging activity of compounds of general formula-I on 2,2,-diphenyl-1-picrylhydrazyl (DPPH)radical (Ref: W. Brand-Williams, M. E. Cuvelier, C. Berset “Use of a free radical method to evaluate antioxidant activity”, Lebensm.- Wiss.u.Technol.,1995,28,Nr.1:25-30).
To evaluate the free radical scavenging activity of compounds they are allowed to react with stable radical DPPH*. In its radical form, DPPH* absorbed at the characteristic wave length of 515 nm, but upon reduction by an antioxidant or radical scavenger (AH), the absorption disappears.
10^−4M solution of DPPH* was prepared in methanol.
Various concentrations (10 mM, 1 mM, 0.5 mM, 0.25 mM and 0.125 mM) of drug solutions were prepared in methanol.
900 μl of DPPH radical solution was added to an eppendorf tube. To it was added 100 μl of methanol.
900 μl of DPPH radical solution was added to an eppendorf tube. To it was added 100 μl of various concentrations of drug solutions in methanol.
The absorbance of control and test samples was recorded after incubation at 30° C. for 30 minutes, at 515 nm taking methanol as blank.
The percent antioxidant activity was calculated according to the formula:
% Antioxidant activity=100−[O.D of test sample/O.D of control*100]

Porcine DPP-IV = target: T1, Porcine DPP-IV (Sus scrofa, UniProt P22411); assay: Assay of DPP-IV enzyme inhibitory activity (spectrophotometric, Gly-Pro-pNA cleavage); type: biochemical
T1 construct: purchased Sigma-Aldrich Germany

[2] = Porcine DPP-IV, Gly-Pro-pNA substrate, 30° C., mean ± SD of three experiments except compound Nos. 133 & 139, read-out: IC50 (μM) Mean ± SD, inhibitory activity on DPP-IV enzyme activity

T1 sequence (P22411 whole entry): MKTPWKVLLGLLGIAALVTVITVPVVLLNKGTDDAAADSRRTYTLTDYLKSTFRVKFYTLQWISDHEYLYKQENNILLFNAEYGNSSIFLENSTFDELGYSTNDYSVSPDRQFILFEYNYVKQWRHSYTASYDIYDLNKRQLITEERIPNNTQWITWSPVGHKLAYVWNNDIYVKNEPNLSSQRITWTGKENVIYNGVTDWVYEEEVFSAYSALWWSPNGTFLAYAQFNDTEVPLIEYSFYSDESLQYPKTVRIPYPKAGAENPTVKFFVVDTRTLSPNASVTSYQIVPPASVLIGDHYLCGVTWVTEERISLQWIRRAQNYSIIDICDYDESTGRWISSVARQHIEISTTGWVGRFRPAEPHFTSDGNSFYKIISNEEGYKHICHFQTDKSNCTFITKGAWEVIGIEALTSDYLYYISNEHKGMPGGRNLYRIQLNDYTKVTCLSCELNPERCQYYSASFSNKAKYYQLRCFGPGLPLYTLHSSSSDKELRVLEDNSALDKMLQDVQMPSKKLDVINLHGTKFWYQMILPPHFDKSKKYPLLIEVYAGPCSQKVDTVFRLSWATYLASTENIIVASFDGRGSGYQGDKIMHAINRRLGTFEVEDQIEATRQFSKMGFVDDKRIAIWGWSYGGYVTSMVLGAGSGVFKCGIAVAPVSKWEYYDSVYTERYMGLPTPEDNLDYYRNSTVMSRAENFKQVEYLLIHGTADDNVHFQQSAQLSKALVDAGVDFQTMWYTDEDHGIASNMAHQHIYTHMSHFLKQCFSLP

SMILES | % Activity (antioxidant, DPPH) ([1]; Concentration 12.5 μM) [%] | % Activity (antioxidant, DPPH) ([1]; Concentration 25 μM) [%] | % Activity (antioxidant, DPPH) ([1]; Concentration 50 μM) [%] | % Activity (antioxidant, DPPH) ([1]; Concentration 100 μM) [%] | IC50 (Porcine DPP-IV; [2]) [µM] | other results
N#CC1CSCN1C(=O)CN(N)C1CCN(C(=O)N2CCOCC2)CC1.O=C(O)C(F)(F)F (stereo not shown) [Compound No. 85, 3-[1-oxo-2-[1-(1(morpholinocarbonyl)-piperidin-4-yl)]hydrazino]ethyl-4-cyano-thiazolidine trifluoroacetate] | 15.25 | 30.67 | 49.97 | 67.23 | 0.79 ± 0.072 | –
CC1CCC(N(N)CC(=O)N2CSCC2C#N)CC1.O=C(O)C(F)(F)F (stereo not shown) [Compound No. 25, 3-[1-Oxo-2-((1-(4-methyl)cyclohexyl)hydrazino)]ethyl-4-cyano thiazolidine trifluoroacetate] | – | – | – | – | 0.67 ± 0.03 | % Activity (antioxidant, DPPH) ([1]; Concentration 100 μM, 100 µM): 95.66%
N#CC1CSCN1C(=O)CN(N)C1CCN(CC(=O)Nc2ccc3c(c2)OCO3)CC1 (stereo not shown) [compound 130, 3-[1-oxo-2-(1-(1-(2-oxo-2-(3,4-methelenedioxyphenyl)aminoethyl)piperidine-4-yl))hydrazino]ethyl-4-cyanothiazolidine, bis-trifluoroacetate] | – | – | – | 56.37 | 0.24 ± 0.025 | –
N#CC1CSCN1C(=O)CN(N)C1CCCC1.O=C(O)C(F)(F)F (stereo not shown) [Compound No. 19, 3-[1-Oxo-2-((1-Cyclopentyl)-hydrazino)]ethyl-4-cyano thiazolidine trifluoroacetate] | – | – | – | 94.55 | 1.46 ± 0.16 | –
N#CC1CSCN1C(=O)CN(N)C1CCN(CC(=O)Nc2ncc(Br)s2)CC1 (stereo not shown) [compound 117, 3-[1-oxo-2-(1-(1-(2-oxo-2-(5-bromothiazol-2-yl)aminoethyl)piperidine-4-yl))hydrazino]ethyl-4-cyanothiazolidine, tris-trifluoroacetate] | – | – | – | 53.44 | 0.226 ± 0.005 | –
COc1ccc(S(=O)(=O)N2CCC(N(N)CC(=O)N3CSCC3C#N)CC2)cc1.O=C(O)C(F)(F)F (stereo not shown) [Compound No. 91, 3-[1-oxo-2-[1-(1-(4-methoxyphenylsulphonyl)-piperidin-4-yl)]hydrazino]ethyl-4-cyanothiazolidine trifluoroacetate] | 17.16 | 38.11 | 58.87 | 85.69 | 6.7 ± 0.4 | –
CCNN(CC(=O)N1CSCC1C#N)C1CCN(S(C)(=O)=O)CC1.O=C(O)C(F)(F)F (stereo not shown) [Compound No. 88, 3-[1-oxo-2-[1-(1-(methylsulphonyl)-piperidin-4-yl)-2-ethyl]hydrazino]ethyl-4-cyanothiazolidine trifluoroacetate] | 14.49 | 44.12 | 56.11 | 69.34 | 3.75 ± 0.101 | –
N#CC1CSCN1C(=O)CN(N)C1CCN(CC(=O)Nc2ccc(C(F)(F)F)cc2)CC1 (stereo not shown) [Compound No. 102, 3-[1-oxo-2-[-1-(1-(2-oxo-2(4-trifluorophenyl)aminoethyl)piperidin-4-yl)]hydrazino]ethyl-4-cyanothiazolidine bis-trifluoroacetate] | 20.90 | 29.56 | 34.26 | 50.15 | 0.308 ± 0.06 | –
N#CC1CSCN1C(=O)CN(N)C1CCN(CC(=O)NC23CC4CC(CC(C4)C2)C3)CC1 (stereo not shown) [Compound No. 103, 3-[1-oxo-2-[1-(1-(2-oxo-2(-adamant-1-yl)aminoethyl)piperidin-4-yl)]hydrazino]ethyl-4-cyanothiazolidine bis-trifluoroacetate] | 20.41 | 40.80 | 44.09 | 54.81 | 0.523 ± 0.017 | –
N#CC1CSCN1C(=O)CN(N)C1CCN(CC(=O)Nc2ncccn2)CC1 (stereo not shown) [Compound No. 106, 3 [2-oxo-2-[1-(1-(2-oxo-2(pyrimidin-2-yl)aminoethyl)piperidin-4-yl)]hydrazino]ethyl-4-cyanothiazolidine tris-trifluoroacetate] | 24.86 | 42.52 | 70.39 | 72.86 | 0.143 ± 0.02 | –
N#CC1CSCN1C(=O)CN(N)C1CCN(CC(=O)NC2CC2)CC1 (stereo not shown) [Compound No. 108, 3[1-oxo-2-[1-(1-(2-oxo-2-(cyclopropyl)aminoethyl)piperidin-4-yl)]hydrazino]ethyl-4-cyanothiazolidine bis-trifluoroacetate] | 20.19 | 26.25 | 34.71 | 52.72 | 0.236 ± 0.025 | IC50 (Porcine DPP-IV; read-out: dipeptidyl peptidase-IV inhibitory IC50's in the range): 0.088 to 0.25 µM
N#CC1CSCN1C(=O)CN(N)C1CCCCC1.O=C(O)C(F)(F)F (stereo not shown) [Compound No. 21, 3-[1-Oxo-2-((1-Cyclohexyl)-hydrazino)]ethyl-4-cyano thiazolidine trifluoroacetate] | – | – | – | 95.71 | 2.01 ± 0.16 | –
CS(=O)(=O)N1CCC(N(N)CC(=O)N2CSCC2C#N)CC1.O=C(O)C(F)(F)F (stereo not shown) [Compound No. 86, 3-[1-oxo-2-[1-(1-(methylsulphonyl)-piperidin-4-yl)]hydrazino]ethyl-4-cyanothiazolidine trifluoroacetate] | 22.72 | 45.27 | 70.18 | 88.14 | 1.46 ± 0.22 | –
N#CC1CSCN1C(=O)CN(N)C1CCN(CC(=O)Nc2ccc(Cl)cc2)CC1 (stereo not shown) [Compound No. 105, 3-[1-oxo-2-[1-(1-(2-oxo-2(4-chlorophenyl)aminoethyl)piperidin-4-yl)]hydrazino]ethyl-4-cyanothiazolidine bis-trifluoroacetate] | 24.03 | 35.27 | 49.25 | 49.63 | – | –
N#CC1CSCN1C(=O)CN(N)C1CCN(CC(=O)Nc2ccc(Cl)cn2)CC1 (stereo not shown) [Compound No. 115, 3-[-1-oxo-2-[1-(1-(−2-oxo-2-(5-chloropyridin-2-yl)aminoethyl)piperidine-4-yl)]hydrazino]ethyl-4-cyanothiazolidine trihydrochloride] | – | – | – | – | – | % Activity (antioxidant, DPPH) ([1]; Concentration 12.5 μM, trihydrochloride, 12.5 µM): 19.46%; % Activity (antioxidant, DPPH) ([1]; Concentration 25 μM, trihydrochloride, 25 µM): 26.94%; % Activity (antioxidant, DPPH) ([1]; Concentration 50 μM, trihydrochloride, 50 µM): 46.24%; % Activity (antioxidant, DPPH) ([1]; Concentration 100 μM, trihydrochloride, 100 µM): 75.84%
N#CC1CSCN1C(=O)CN(N)C1CCN(CC(=O)Nc2cccnc2Cl)CC1 (stereo not shown) [compound 121] | – | – | – | 57.13 | – | –
N#CC1CSCN1C(=O)CN(N)C1CCN(CC(=O)Nc2ccc3c(c2)OCCO3)CC1 (stereo not shown) [Compound No. 104, 3-[1-oxo-2-[1-(1-(2-oxo-2(2,3dihydrobenzo(1,4)dioxan-6-yl)aminoethyl)piperidin-4-yl)]hydrazino]ethyl-4-cyano-thiazolidine bis-trifluoroacetate] | 19.40 | 36.23 | 42.20 | 50.14 | – | –

From patent US20040106802A1, “Novel compounds and therapeutic uses thereof” (TORRENT PHARMACEUTICALS LTD., priority 2002, published 2004)
